According to patent US6458813B1, “Substituted pyridine compounds and methods of use” (Amgen Inc., priority 1997, dated 2002):

The compounds below were run on production of tumor necrosis factor (TNF) by monocytes activated with bacterial lipopolysaccharide (LPS) (assay: Lipopolysaccharide-activated monocyte TNF production assay). Details: Homo sapiens, adherent monocytes from PBMCs, 60 min with compound, then LPS 4 hrs, TNF in supernatants by ELISA, read-out: IC50 (concentration of test compounds causing a 50% reduction in TNF production).
Type: cell-based
Description: Lipopolysaccharide-activated monocyte TNF production assay
Test compounds were evaluated in vitro for the ability to inhibit the production of tumor necrosis factor (TNF) by monocytes activated with bacterial lipopolysaccharide (LPS). Fresh residual source leukocytes (a byproduct of plateletpheresis) were obtained from a local blood bank, and peripheral blood mononuclear cells (PBMCs) were isolated by density gradient centrifugation on Ficol-Paque Plus (Pharmacia). PBMCs were suspended at 2×10^6/ml in DMEM supplemented to contain 2% FCS, 10 mM, 0.3 mg/ml […], 100 U/ml penicillin G and […] streptomycin sulfate (complete media). Cells were plated into Falcon flat bottom, 96 well culture plates (200 μl/well) and cultured overnight at 37° C. and 6% CO2. Non-adherent cells were removed by washing with 200 μl/well of fresh medium. Wells containing adherent cells (˜70% monocytes) were replenished with 100 μl of fresh medium.
Preparation of test compound stock solutions
Test compounds were dissolved in DMSO. Compound stock solutions were prepared to an initial concentration of […]. Stocks were diluted initially to 20-200 μM in complete media. Nine two-fold serial dilutions of each compound were then prepared in complete medium.
Treatment of cells with test compounds and activation of TNF production with lipopolysaccharide
One hundred microliters of each test compound dilution were added to microtiter wells containing adherent monocytes and 100 μl complete medium. Monocytes were cultured with test compounds for 60 min at which time 25 μl of complete medium containing 30 ng/ml lipopolysaccharide from E. coli K532 were added to each well. Cells were cultured an additional 4 hrs. Culture supernatants were then removed and TNF presence in the supernatants was quantified using an ELISA.
Flat bottom, 96 well Corning High Binding ELISA plates were coated overnight (4° C.) with 150 μL/well of 3 μg/ml murine anti-human TNF-α MAb (R&D Systems #MAB210). Wells were then blocked for 1 hr at room temperature with 200 μL/well of CaCl2-free ELISA buffer supplemented to contain 20 mg/ml BSA (standard ELISA buffer: […], 150 mM NaCl, 2 mM CaCl2, 0.15 mM thimerosal, pH 7.4). Plates were washed and replenished with 100 μl of test supernatants (diluted 1:3) or standards. Standards consisted of eleven 1.5-fold serial dilutions from a stock of 1 ng/ml recombinant human TNF (R&D Systems). Plates were incubated at room temperature for 1 hr on orbital shaker (300 rpm), washed and replenished with 100 μl/well of 0.5 μg/ml goat anti-human TNF-α (R&D systems #AB-210-NA) biotinylated at a 4:1 ratio. Plates were incubated for 40 min, washed and replenished with 100 μl/well of alkaline phosphatase-conjugated streptavidin (Jackson ImmunoResearch #016-050-084) at 0.02 μg/ml. Plates were incubated 30 min, washed and replenished with 200 μl/well of 1 mg/ml of p-nitrophenyl phosphate. After 30 min, plates were read at 405 nm on a Vmax plate reader.
Standard curve data were fit to a second order polynomial and unknown TNF-α concentrations determined from their OD by solving this equation for concentration. TNF concentrations were then plotted vs. test compound concentration using a second order polynomial. This equation was then used to calculate the concentration of test compounds causing a 50% reduction in TNF production.
`O=C(Nc1ccc(Oc2cccc3ccccc23)nc1)c1c(Cl)cccc1Cl` [2-(1-naphthyloxy)-5-(2,6-dichlorophenylcarbonylamino) pyridine] gave an IC50 of under 15 µM. With `Cc1ccc(Oc2ccc(NC(=O)c3c(C)cccc3C)cn2)c(C)c1` [2-(2,4-dimethylphenoxy)-5-(2,6-dimethylphenylcarbonylamino)pyridine] the IC50 was under 15 µM. `Cc1ccc(Oc2ccc(NC(=O)c3ccccc3C)cn2)c(C)c1` [2-(2,4-dimethylphenoxy)-5-(2-methylphenylcarbonylamino) pyridine] showed an IC50 of under 15 µM. Compound `Cc1ncccc1Oc1ccc(NC(=O)c2c(Cl)cccc2Cl)cn1` [2-(2-methyl-3-pyridyloxy)-5-(2,6-dichlorophenylcarbonylamino)pyridine] has an IC50 of under 15 µM. `Cc1cc(Cl)ccc1Oc1ccc(NC(=O)c2c(Cl)cccc2Cl)cn1` [2-(2-methyl-4-chlorophenoxy)-5-(2,6-dichlorophenylcarbonylamino)pyridine] gave an IC50 of under 15 µM. With `Cc1cc(Cl)ccc1Oc1ccc(NC(=O)c2c(C)cccc2C)cn1` [2-(2-methyl-4-chlorophenoxy)-5-(2,6-dimethylphenylcarbonylamino)pyridine] the IC50 was under 15 µM. With `Cc1cc(Cl)ccc1Oc1ccc(NC(=O)c2ccccc2Cl)cn1` [2-(2-methyl-4-chlorophenoxy)-5-(2-chlorophenylcarbonylamino)pyridine] the IC50 was under 15 µM. With `Cc1cc(Cl)ccc1Oc1ccc(NC(=O)c2c(C)noc2C)cn1` [2-(2-methyl-4-chlorophenoxy)-5-((3,5-dimethyl-4-isoxazolyl)carbonylamino)pyridine] the IC50 was under 15 µM. With `Cc1ccccc1NC(=O)c1ccc(Nc2ccc(Cl)cc2C)nc1` [2-(2-methyl-4-chlorophenylamino)-5-(2-methylphenylaminocarbonyl)pyridine] the IC50 was under 15 µM. In the case of `Cc1cc(Cl)ccc1Nc1ccc(NC(=O)c2ccccc2C)cn1` [2-(2-methyl-4-chlorophenylamino)-5-(2-methylphenylcarbonylamino)pyridine], the IC50 is reported as under 15 µM. Compound `Cc1cc(F)ccc1Oc1ccc(NC(=O)c2c(Cl)cccc2Cl)cn1` [2-(2-methyl-4-fluorophenoxy)-5-(2,6-dichlorophenylcarbonylamino)pyridine] has an IC50 of under 15 µM. `Cc1cc(F)ccc1Oc1ccc(NC(=O)c2c(C)cccc2C)cn1` [2-(2-methyl-4-fluorophenoxy)-5-(2,6-dimethylphenylcarbonylamino)pyridine] showed an IC50 of under 15 µM. Compound `Cc1cc(F)ccc1Oc1ccc(NC(=O)c2ccccc2F)cn1` [2-(2-methyl-4-fluorophenoxy)-5-(2-fluorophenylcarbonylamino)pyridine] has an IC50 of under 15 µM. `Cc1cc(F)ccc1Oc1ccc(NC(=O)c2ccccc2C)cn1` [2-(2-methyl-4-fluorophenoxy)-5-(2-methylphenylcarbonylamino)pyridine] was tested, and the IC50 was under 15 µM. `CC1CCCCC1Nc1ccc(NC(=O)c2c(Cl)cccc2Cl)cn1` (centres unmarked) [2-(2-methylcyclohexylamino)-5-(2,6-dichlorophenylcarbonylamino)pyridine] was tested, and the IC50 was under 15 µM. `Cc1ccccc1C(=O)Nc1ccc(NC2CCCCC2C)nc1` (centres unmarked) [2-(2-methylcyclohexylamino)-5-(2-methylphenylcarbonylamino)pyridine] was tested, and the IC50 was under 15 µM. For `Cc1ccccc1Nc1ccc(NC(=O)c2c(C)cccc2C)cn1` [2-(2-methylphenylamino)-5-(2,6-dimethylphenylcarbonylamino)pyridine], the IC50 was under 15 µM. `Cc1ccccc1Nc1ccc(NC(=O)c2ccccc2C)cn1` [2-(2-methylphenylamino)-5-(2-methylphenylcarbonylamino)pyridine] showed an IC50 of under 15 µM. With `Cc1cccc(C)c1C(=O)Nc1ccc(Oc2ccc(Cl)cc2)nc1` [2-(4-chlorophenoxy)-5-(2,6-dimethylphenylcarbonylamino) pyridine] the IC50 was under 15 µM. For `O=C(Nc1ccc(NC2CCCCC2)nc1)c1c(Cl)cccc1Cl` [2-cyclohexylamino-5-(2,6-dichlorophenylcarbonylamino) pyridine], the IC50 was under 15 µM. `Cc1cccc(C)c1C(=O)Nc1ccc(NC2CCCCC2)nc1` [2-cyclohexylamino-5-(2,6-dimethylphenylcarbonylamino) pyridine] gave an IC50 of under 15 µM. Work on `O=C(Nc1ccc(OC2CCCCC2)nc1)c1c(Cl)cccc1Cl` [2-cyclohexyloxy-5-(2,6-dichlorophenylcarbonylamino) pyridine] yielded an IC50 of under 15 µM. In the case of `Cc1cccc(C)c1C(=O)Nc1ccc(OC2CCCCC2)nc1` [2-cyclohexyloxy-5-(2,6-dimethylphenylcarbonylamino) pyridine], the IC50 is reported as under 15 µM. `O=C(Nc1ccc(OC2CCCCC2)nc1)c1ccccc1Cl` [2-cyclohexyloxy-5-(2-chlorophenylcarbonylamino)pyridine] was tested, and the IC50 was under 15 µM. In the case of `Cc1ccccc1C(=O)Nc1ccc(OC2CCCCC2)nc1` [2-cyclohexyloxy-5-(2-methylphenylcarbonylamino)pyridine], the IC50 is reported as under 15 µM.

The compounds below were run on Cyclooxygenase enzyme (COX-1 and COX-2) (assay: Cyclooxygenase Enzyme Activity Assay (isoform not stated for the result)). Details: COX-1 (THP-1) / COX-2 (HOSC) cell assays, PGE2 ELISA.
Type: cell-based, human
Description: Cyclooxygenase Enzyme Activity Assay
The human monocytic leukemia cell line, THP-1, differentiated by exposure to phorbol esters expresses only COX-1; the human osteosarcoma cell line 143B expresses predominantly COX-2. THP-1 cells are routinely cultured in RPMI complete media supplemented with 10% FBS and human osteosarcoma cells (HOSC) are cultured in minimal essential media supplemented with 10% fetal bovine serum (MEM-10%FBS); all cell incubations are at 37° C. in a humidified environment containing 5% CO2.
In preparation for the COX-1 assay, THP-1 cells are grown to confluency, split 1:3 into RPMI containing 2% FBS and […] phorbol 12-myristate 13-acetate (TPA), and incubated for 48 hours on a shaker to prevent attachment. […] Arachidonic acid is added to a final concentration of […], the cells incubated for 20 minutes at 37° C., and enzyme activity determined as described below. […]
After incubation with arachidonic acid, the reactions are stopped by the addition of 1 N HCl, followed by neutralization with 1 N NaOH and centrifugation to pellet cell debris. Cyclooxygenase enzyme activity in both HOSC and THP-1 cell supernatants is determined by measuring the concentration of PGE2 using a commercially available ELISA (Neogen #404110). […]
`Cc1ccc(Nc2ccc(NC(=O)c3c(Cl)cccc3Cl)cn2)c(C)c1` [2-(2,4-dimethylphenylamino)-5-(2,6-dichlorophenylcarbonylamino)pyridine] was tested, and the IC50 was at most 10 µM.
